# Experimental data as given in US4200635A, “Antibacterially active amides” (Beecham Group Limited, priority 1977, dated 1980).
# Like-named read-outs stand apart in the source and are kept apart here.
# What was measured:
# Staph. aureus B4 = experiment: MIC, veterinary bacteria; type: cell-based; details: Staphylococcus aureus
# Strep. uberis SPU 1 = experiment: MIC, veterinary bacteria; type: cell-based; details: Streptococcus uberis, SPU1
# Past. haemolytica PA5 = experiment: MIC, veterinary bacteria; type: cell-based; details: Mannheimia haemolytica
# Bord. bronchiseptica BO9 = experiment: MIC, veterinary bacteria; type: cell-based; details: Bordetella bronchiseptica
# [1] = system: Strep. dysgalactiae SPD 1; experiment: MIC, veterinary bacteria; type: cell-based; details: Streptococcus dysgalactiae, SPD1; Strep. dysgalactiae SPD 1; read-out: M.I.C.
# Past. multocida PAI = experiment: MIC, veterinary bacteria; type: cell-based; details: Pasteurella multocida
# [2] = system: Neisseria catarrhalis 1502; experiment: MIC, serial dilution in nutrient agar, human bacteria; type: cell-based
# M. pulmonis JB = experiment: in vitro MIC, anti-mycoplasmal activity; type: cell-based; details: Mycoplasmopsis pulmonis, Friis' broth, microtiter method
# From the text: (§1) Tables 3 and 4 show the in vitro MIC values (μg/ml) of the compounds of Examples 1 to 9 against a number of mycoplasma organisms, determined in Friis' broth using the microtiter method.
# M. pneumoniae ATCC 15492 = experiment: in vitro MIC, anti-mycoplasmal activity; type: cell-based; details: Mycoplasmoides pneumoniae, ATCC15492, Friis' broth, microtiter method
# From the text: as §1
# M. fermentans MWKL4 = experiment: in vitro MIC, anti-mycoplasmal activity; type: cell-based; details: Mycoplasmopsis fermentans, Friis' broth, microtiter method
# From the text: as §1
# M. dispar NCTC 10125 = experiment: in vitro MIC, anti-mycoplasmal activity; type: cell-based; details: Friis' broth, microtiter method
# From the text: as §1
# [3] = system: M. suipneumoniae J2206/183b; experiment: in vitro MIC, anti-mycoplasmal activity; type: cell-based; details: Mesomycoplasma hyopneumoniae, Friis' broth, microtiter method
# From the text: as §1
# Staph. aureus 152 = experiment: MIC, veterinary bacteria; type: cell-based; details: Staphylococcus aureus
# Staph. aureus Oxford = experiment: MIC, serial dilution in nutrient agar, human bacteria; type: cell-based; details: Staphylococcus aureus
# [4] = system: Pasteurella multocida 1633; experiment: as above; type: cell-based; details: nutrient agar containing 5% chocolated horse blood
# M. pneumoniae 427a = experiment: in vitro MIC, anti-mycoplasmal activity; type: cell-based; details: Mycoplasmoides pneumoniae, Friis' broth, microtiter method
# [5] = system: Haemophilus influenzae Wy21; experiment: MIC, serial dilution in nutrient agar, human bacteria; type: cell-based
# M. suipneumoniae Str. 11 = experiment: in vitro MIC, anti-mycoplasmal activity; type: cell-based; details: Mesomycoplasma hyopneumoniae, Friis' broth, microtiter method
# [6] = system: Haemophilus influenzae Q1; experiment: MIC, serial dilution in nutrient agar, human bacteria; type: cell-based; details: nutrient agar containing 5% chocolated horse blood
# Staph. aureus Russell = experiment: as above; type: cell-based; details: Staphylococcus aureus; Staph. aureus Russell; nutrient agar containing 5% chocolated horse blood; read-out: M.I.C.
# Bacillus subtilis 6633 = experiment: as above; type: cell-based
# Strep. pneumoniae CN33 = experiment: as above; type: cell-based; details: Streptococcus pneumoniae
# M. dispar H225 = experiment: in vitro MIC, anti-mycoplasmal activity; type: cell-based; details: M. dispar H225; Friis' broth, microtiter method; read-out: M.I.C.
# From the text: as §1
# [7] = system: Neisseria flavescens 8263; experiment: MIC, serial dilution in nutrient agar, human bacteria; type: cell-based; details: nutrient agar containing 5% chocolated horse blood
# Mouse blood levels = type: in vivo, male albino mice, CS1 strain; details: blood, sc, 50 mg/kg subcutaneous
# Procedure: The blood levels of the 5-ethoxycarbonylpentyl amide of monic acid A were measured after subcutaneous dosing to male albino mice.
# Species: Albino male mice 18-22 g CS1 strain.
# Routes: Subcutaneous and oral.
# Dose: 50 mg/kg. This compound was supplied as an oil. It was administered as a solution in 10% DMF v/v in PBS or water.
# Assay: Neisseria catarrhalis, immediate assay of samples.
# [8] = Staph. aureus B4, read-out: M.I.C.
# [9] = Strep. uberis SPU 1, read-out: M.I.C.
# [10] = Past. haemolytica PA5, read-out: M.I.C.
# [11] = Bord. bronchiseptica BO9, read-out: M.I.C.
# [12] = Past. multocida PAI, read-out: M.I.C.
# [13] = Staph. aureus Oxford, nutrient agar containing 5% chocolated horse blood, read-out: M.I.C.
# [14] = Bacillus subtilis 6633, nutrient agar containing 5% chocolated horse blood, read-out: M.I.C.
Compound,MIC (Bord. bronchiseptica BO9; BO9) [µg/mL],MIC [1] [µg/mL],MIC (Staph. aureus B4; [8]) [µg/mL],MIC (M. pulmonis JB) [µg/mL],MIC (M. fermentans MWKL4) [µg/mL],MIC (M. dispar NCTC 10125) [µg/mL],MIC [3] [µg/mL],MIC (Staph. aureus 152) [µg/mL],MIC [4] [µg/mL],MIC (M. pneumoniae 427a) [µg/mL],MIC (Strep. uberis SPU 1; [9]) [µg/mL],MIC (Past. haemolytica PA5; [10]) [µg/mL],MIC (M. suipneumoniae Str. 11) [µg/mL],MIC (Bord. bronchiseptica BO9; [11]) [µg/mL],MIC [6] [µg/mL],MIC (Staph. aureus Russell) [µg/mL],MIC (Past. multocida PAI; [12]) [µg/mL],MIC (Staph. aureus Oxford; [13]) [µg/mL],MIC (Bacillus subtilis 6633; [14]) [µg/mL],also measured
"COC(=O)CCNC(=O)C=C(C)CC1OCC(CC2OC2C(C)C(C)O)C(O)C1O (centres unmarked) [Example 10, 2-Methoxycarbonylethylamide of monic acid A]",20,20,–,–,–,–,–,–,–,–,–,–,–,–,–,–,–,–,–,MIC (Staph. aureus B4; B4): 80 µg/mL; MIC (Strep. uberis SPU 1): 2.5 µg/mL; MIC (Past. haemolytica PA5; PA5): 5 µg/mL; MIC (Past. multocida PAI): 0.625 µg/mL
"COC(=O)CCCCCCCCNC(=O)C=C(C)CC1OCC(CC2OC2C(C)C(C)O)C(O)C1O (centres unmarked) [Example 7, 8-Methoxycarbonyloctylamide of monic acid A]",–,0.0625,4,< 0.02,< 0.02,0.156,10,8,1,10,0.125,8,1.25,2,0.5,25,1,–,–,"MIC ([2]; Neisseria, 1502): 0.1 µg/mL; MIC (M. pneumoniae ATCC 15492): 10 µg/mL; MIC (Staph. aureus Oxford): 10 µg/mL; MIC ([5]; Haemophilus influenzae, WY21): 0.5 µg/mL; MIC (Bacillus subtilis 6633; Bacillus subtilis, 6633): 2.5 µg/mL"
"C=CCNC(=O)C=C(C)CC1OCC(CC2OC2C(C)C(C)O)C(O)C1O (centres unmarked) [Example 8, Allylamide of monic acid A]",–,0.156,5,0.039,0.039,0.078,1.25,20,0.05,10,0.625,0.625,0.625,1.25,> 100,100,1.25,2.5,2.5,"MIC (Strep. pneumoniae CN33; Strep. pneumoniae CN33, nutrient agar containing 5% chocolated horse blood, read-out: M.I.C.): 5 µg/mL; MIC ([2]; Neisseria catarrhalis 1502, nutrient agar containing 5% chocolated horse blood, read-out: M.I.C.): 100 µg/mL; MIC (M. dispar H225): 0.078 µg/mL"
"CC(=CC(N)=O)CC1OCC(CC2OC2C(C)C(C)O)C(O)C1O (centres unmarked) [Example 1, Primary amide of monic acid A]",40,20,> 80,15.6,15.6,1.9,7.8,> 80,10,250,20,40,–,–,5,100,40,50,100,"MIC [7]: 2.5 µg/mL; MIC (Strep. pneumoniae CN33; CN33): 100 µg/mL; MIC ([5]; Haemophilus influenzae Wy21, nutrient agar containing 5% chocolated horse blood, read-out: M.I.C.): 10 µg/mL"
"C/C(=C\C(=O)OCCCCCCCCC(=O)O)C[C@@H]1OC[C@H](C[C@@H]2O[C@H]2[C@@H](C)[C@H](C)O)[C@@H](O)[C@H]1O [Pseudomonic Acid, reference compound]",–,–,–,–,–,–,–,–,–,–,–,–,–,–,–,–,–,–,–,"concentration at 5 min (Mouse blood levels; 5 minutes after dosing, mean of 5 experiments, assay Neisseria catarrhalis, read-out: Concentration (blood level)): 8200 ng/mL; concentration at 10 min (Mouse blood levels; 10 minutes after dosing, mean of 5 experiments, assay Neisseria catarrhalis, read-out: Concentration (blood level)): 3700 ng/mL; concentration at 20 min (Mouse blood levels; 20 minutes after dosing, mean of 5 experiments, assay Neisseria catarrhalis, read-out: Concentration (blood level)): 1100 ng/mL; concentration at 0.5 h (Mouse blood levels; 30 minutes after dosing, mean of 5 experiments, assay Neisseria catarrhalis, read-out: Concentration (blood level)): 620 ng/mL; concentration at 1 h (Mouse blood levels; 60 minutes after dosing, mean of 5 experiments, assay Neisseria catarrhalis, read-out: Concentration (blood level)): < 500 ng/mL; half-life (Mouse blood levels): 5 min"
